Literature values as cited in article PMC6154651 (Molecules : A Journal of Synthetic Chemistry and Natural …, 2017).

Assays:
[1] = test system: FXR-LBD (ligand binding domain)
LCA-induced cholestasis = conditions: mice, low dose 20 mg/kg
obstructive cholestasis = conditions: bile duct-ligated mice
FXR [2] = conditions: HepG2 cells
FXR [3] = test system: FXR; design: method as in PMID 16626693

## CC1(C)CC[C@]2(C(=O)O)CC[C@]3(C)C(=CC[C@@H]4[C@@]5(C)CC[C@H](O)C(C)(C)[C@@H]5CC[C@]43C)[C@@H]2C1 [Compound 1, oleanolic acid]
[1]
  activity of FXR-LBD induced by CDCA: dose-dependently suppressed
LCA-induced cholestasis
  protection against LCA-induced cholestasis: could protect
Obstructive cholestasis
  effect on obstructive cholestasis: attenuate obstructive cholestasis
FXR [2]; 25 μM
  CDCA induction of bile salt export protein (BSEP): partially blocked
  expression of organic solute transporter (OST-β): did not affect
FXR [2]
  expression levels of cholesterol 7α-hydroxylase (CYP7A1): suppressed
  expression of short heterodimer partner (SHP): slightly enhanced

## CC1(C)CCC2(C(=O)O)CCC3(C)C(=CCC4C5(C)CCC(OC(=O)c6ccccc6C(=O)O)C(C)(C)C5CCC43C)C2C1 (stereo not drawn) [NPLC441, 3-β-(2-carboxybenzoyloxy)-oleanolic acid]
Retinoid X receptor-LBD
  binding to retinoid X receptor-LBD: bound strongly

## C[C@@H]1O[C@@H](O[C@H]2[C@H](OC(=O)[C@]34CCC(C)(C)C[C@H]3C3=CC[C@@H]5[C@@]6(C)C[C@H](O)[C@H](O[C@@H]7O[C@H](CO)[C@@H](O)[C@H](O)[C@H]7O)C(CO)(CO)[C@@H]6CC[C@@]5(C)[C@]3(C)C[C@H]4O)OC[C@H](O)[C@@H]2O)[C@H](O)[C@H](O)[C@H]1O[C@@H]1OC[C@@H](O)[C@H](O[C@@H]2OC[C@](O)(CO)[C@H]2O)[C@H]1O [platycodin D]
FXR [3]
  activity on FXR: weak activity
